Data from BindingDB's records for doi:10.1016/j.bmcl.2013.05.024 (Janssen Research and Development, 2014).
pIC50: −log10 of the molar value.

Test: Antagonist activity at CCR2 receptor in human THP1 cells assessed as inhibition of MCP-1 induced chemotaxis after 3 hrs

pIC50 | SMILES
7.01 | COC1COCCC1N[C@@H]1C[C@H]2CN(C(=O)OCCN3CCOCC3)C[C@@]2(C(=O)N2CCc3ncc(C(F)(F)F)cc3C2)C1 (some centres undefined)
7.55 | COC1COCCC1N[C@@H]1C[C@H]2CN(C(=O)OCCN3CCCC3)C[C@@]2(C(=O)N2CCc3ncc(C(F)(F)F)cc3C2)C1 (some centres undefined)
7.74 | COC1COCCC1N[C@@H]1C[C@H]2CN(C(=O)OCCNC(C)=O)C[C@@]2(C(=O)N2CCc3ncc(C(F)(F)F)cc3C2)C1 (some centres undefined)
7.19 | COC1COCCC1N[C@@H]1C[C@H]2CN(C(=O)OCC3CCOCC3)C[C@@]2(C(=O)N2CCc3ncc(C(F)(F)F)cc3C2)C1 (some centres undefined)
7.39 | COCCOC(=O)N1C[C@@H]2C[C@@H](NC3CCOCC3OC)C[C@]2(C(=O)N2CCc3ncc(C(F)(F)F)cc3C2)C1 (some centres undefined)
7.68 | COC1COCCC1N[C@@H]1C[C@H]2CN(C(=O)OCC(C)C)C[C@@]2(C(=O)N2CCc3ncc(C(F)(F)F)cc3C2)C1 (some centres undefined)
7.00 | COC1COCCC1N[C@@H]1C[C@H]2CN(C(=O)OCC(C)(C)C)C[C@@]2(C(=O)N2CCc3ncc(C(F)(F)F)cc3C2)C1 (some centres undefined)
6.72 | COC1COCCC1N[C@@H]1C[C@H]2CN(C(=O)OCc3ccccc3)C[C@@]2(C(=O)N2CCc3ncc(C(F)(F)F)cc3C2)C1 (some centres undefined)
7.16 | COC(=O)N1C[C@@H]2C[C@@H](NC3CCOCC3OC)C[C@]2(C(=O)N2CCc3ncc(C(F)(F)F)cc3C2)C1 (some centres undefined)
7.54 | COC1COCCC1N[C@@H]1C[C@H]2CN(C(N)=NC#N)C[C@@]2(C(=O)N2CCc3ncc(C(F)(F)F)cc3C2)C1 (some centres undefined)
6.66 | COC1COCCC1N[C@@H]1C[C@H]2CN(C(=O)NCc3ccccc3)C[C@@]2(C(=O)N2CCc3ncc(C(F)(F)F)cc3C2)C1 (some centres undefined)
7.09 | COC1COCCC1N[C@@H]1C[C@H]2CN(C(=O)NC(C)C)C[C@@]2(C(=O)N2CCc3ncc(C(F)(F)F)cc3C2)C1 (some centres undefined)
7.15 | CNC(=O)N1C[C@@H]2C[C@@H](NC3CCOCC3OC)C[C@]2(C(=O)N2CCc3ncc(C(F)(F)F)cc3C2)C1 (some centres undefined)
7.57 | COC1COCCC1N[C@@H]1C[C@H]2CN(C(N)=O)C[C@@]2(C(=O)N2CCc3ncc(C(F)(F)F)cc3C2)C1 (some centres undefined)
7.41 | COC1COCCC1N[C@@H]1C[C@H]2CN(C(=O)C#CC3CC3)C[C@@]2(C(=O)N2CCc3ncc(C(F)(F)F)cc3C2)C1 (some centres undefined)
7.06 | COC1COCCC1N[C@@H]1C[C@H]2CN(C(=O)/C=C/C(C)(C)C)C[C@@]2(C(=O)N2CCc3ncc(C(F)(F)F)cc3C2)C1 (some centres undefined)
6.64 | COC1COCCC1N[C@@H]1C[C@H]2CN(C(C)=O)C[C@@]2(C(=O)N2CCc3ncc(C(F)(F)F)cc3C2)C1 (some centres undefined)
7.05 | COC1COCCC1N[C@@H]1C[C@H]2CN(c3ccccc3)C[C@@]2(C(=O)N2CCc3ncc(C(F)(F)F)cc3C2)C1 (some centres undefined)

SMILES | pIC50
COC1COCCC1N[C@@H]1C[C@H]2CN(C(=O)Oc3ccccc3)C[C@@]2(C(=O)N2CCc3ncc(C(F)(F)F)cc3C2)C1 (some centres undefined) | 6.02
